Test results: paper PMC7948455, “Novel drug discovery platform for spinocerebellar ataxia, using fluorescence technology targeting β-III-spectrin” (The Journal of Biological Chemistry, 2020)
Several values for one entry are separate records, joined by “and”; a condition that tells them apart may be missing. Identical values can stand only once.

Tests used:
[1] = biological target: T1, ABD-L253P binding to actin (Homo sapiens, UniProt O15020, L253P); assay: F-actin and ABD cosedimentation assay; conditions: 3 μM swinholide A, 50 μM tegaserod; n = 4
T1 construct: the β-III-spectrin (human) ABD residues 1 to 284; His-SUMO (cleaved yes); made in house; host or cells: E. coli BL21(DE3), vector pE-SUMOpro; actin from rabbit psoas muscle tissue
Method: (§1) Actin was purified from acetone powder derived from the psoas muscle of New Zealand white rabbit (Oryctolagus cuniculus) ([46]). Filamentous (F)-actin was stored for up to 3 days on ice before use in binding assays. Within an hour of the binding assay, the F-actin was clarified at 100,000g at 4 °C for 10 min prior to setting up binding assays. The L253P β-III-spectrin ABD was expressed in E. coli BL21(DE3) (Novagen). The ABD was purified and the His-SUMO tag proteolytically removed, as previously described ([14]), except size-exclusion chromatography was not performed due to the high purity of the ABD protein. Lifeact-mCherry protein was similarly prepared. A Bradford assay was performed to determine clarified F-actin and ABD protein concentrations.
(§2) F-actin and ABD binding assays were performed as previously described ([10]). In brief, binding assays used 1 μM ABD protein, 1 μM F-actin, and 1 to 50 μM compound (as indicated) or DMSO control for a total reaction volume of 60 μl in F-buffer containing 10 mM Tris, pH 7.5, 150 mM NaCl, 0.5 mM ATP, 2 mM MgCl2, and 1 mM DTT. Following 30 min incubation at room temperature (21 °C). F-actin was pelleted using centrifugation at 100,000g at 25 °C for 30 min. Unbound ABD in the supernatant was measured following SDS-PAGE and Coomassie blue staining in accord ([10]). In addition, control cosedimentations assays that lacked actin were performed to test if compounds cause ABD aggregation. F-actin and Lifeact-mCherry binding assays were undertaken with 2 μM Lifeact-mCherry, 30 μM F-actin, and 1 to 50 μM compound (as indicated) or DMSO control for a total reaction volume of 80 μl in F-buffer. For a no-actin binding control, an assay sample with no F-actin was also set up. Binding reactions were allowed to reach equilibrium at room temperature (21 °C) for 30 min, and then F-actin was pelleted by centrifugation at 100,000g at 25 °C for 30 min. The amount of unbound Lifeact-mCherry was sampled by loading 7 μl of spin supernatant on a low-volume black bottom 384-well plate (Greiner). Amount of mCherry was determined by acquiring fluorescence spectrum peak intensity at ∼600 nm using a spectral unmixing plate reader (Fluorescence Innovations, Inc) equipped with a 532 nm laser (Laserglow Technologies, Ontario, Canada) for excitation, 532 nm long-pass filter for emission, and PMT for emission detection. The fraction of Lifeact-mCherry bound to F-actin was determined by subtracting from one the fraction of supernatant fluorescence intensity relative to the no-actin control sample:(3) Lifeactboundfraction=1−Fcompound/DMSO/FNo−actin where Fcontrol/DMSO is the peak mCherry fluorescence of assay samples containing compound or DMSO control, and Fno-actin is the peak mCherry fluorescence of assay samples that contained no F-actin.

[2] = biological target: T2, binding of the mutant β-III-spectrin L253P ABD to F-actin (Homo sapiens, UniProt O15020, L253P); assay: Primary live-cell FRET assay (GFP-ABD-L253P + Lifeact-mCherry) in HEK293-6E cells; format: cell-based; conditions: for Effect of Hit compound on primary FRET: LOPAC Hits (10 μM screen, 4SD threshold, 120 min) and dose response
T2 construct: the β-III-spectrin (human) ABD residues 1 to 284; expressed in transfected cells; host or cells: HEK293-6E (pTT5 vector, transient transfection)
Method: To develop a biosensor that monitors the binding of mutant L253P β-III-spectrin to actin filaments in live cells, a FRET approach was tested. A FRET donor construct consisting of green fluorescent protein fused to the N terminus of the mutant ABD (GFP-ABD-L253P) was coexpressed in HEK293-EBNA1-6E (HEK293-6E) cells with a FRET acceptor construct consisting of the actin-binding peptide, Lifeact, fused to the N terminus of red fluorescent protein, mCherry (Lifeact-mCherry). Lifeact is a 17 amino acid peptide derived from the yeast actin-binding protein, ABP140 ([15]). […] The cryo-EM structures of ABD L253P and Lifeact on actin indicate that the binding sites overlap on actin units. With ABD L253P and Lifeact bound on neighboring actin units, we predicted an average distance of ∼80 Å between GFP and mCherry (Fig. 1). With a known Förster distance R0 of 52.4 Å ([17]), this corresponds to FRET value of 0.07, a sufficient signal for a biosensor platform. To design a system most compatible for large production and eventual screening of 50,000+ compound libraries, we used HEK293-6E cells, a suspension cell line that yields greater levels (>threefold) of recombinant protein expression ([18], [19]).
With a constant amount of GFP-ABD-L253P expressed, increased Lifeact-mCherry expression increases FRET with an exponential plateau to 0.12 (Fig. 2A). To measure the nonspecific component of our FRET readout, we concurrently tested expression of mCherry in place of Lifeact-mCherry. For comparison, the Lifeact-mCherry and mCherry fluorescence intensity values (normalized to 1:1 GFP-ABD:Lifeact-mCherry sample) are plotted on the X-axis for samples transfected with different donor-to-acceptor DNA ratios. […] With the trade-off between high FRET and minimal nonspecific FRET, the donor:acceptor ratio 1:2 was chosen for the experiments that followed (Fig. 2A). […] Of note, we also tested the biosensor using WT-ABD, which yielded substantially lower FRET (Fig. S1), consistent with the 1000-fold decrease in affinity of WT-ABD for actin ([10]). We proceeded to test the compatibility of the GFP-ABD-L253P and Lifeact-mCherry assay for primary compound screening and the GFP-ABD-L253P and mCherry assay as a potential high-throughput counter screen.
To test the performance of the assay in HTS, the 1280 LOPAC compounds, together with 256 DMSO controls, were dispensed in 5 nl volumes into individual wells of 1536-well microplates and stored at −20 °C until use. To test the reproducibility of replicate screens on the same day, a single batch of HEK293 cells was transfected with GFP-ABD-L253P and Lifeact-mCherry. In addition, control cells were transfected with only GFP-ABD-L253P, to determine compound effect on donor-only lifetime (τD). To test reproducibility of the screens across different days, identical transfections were performed on another batch of HEK293-6E cells on a second day. Following plate thaw, 5 μl of assay cells were loaded in each well via a multidrop liquid dispenser, and a time course of compound effects (at 20, 120, and 180 min post load) on fluorescence lifetime was acquired using a fluorescence lifetime plate reader (FLT-PR). This technology has been advanced to high-density 1536-well plates in recent years for successful HTS using a range of protein biosensors including sarcoplasmic reticulum Ca-ATPase ([24], [25], [26], [27]), ryanodine receptor ([23], [28]), actin ([20]), tumor necrosis factor receptor 1 ([29], [30]), and tau ([31]).
At 2 × 10^6 cells/ml, HEK293-6E cells were transfected with GFP-ABD-L253P or GFP-ABD-WT (2.4 μg), Lifeact-mCherry (2.4–16.8 μg), mCherry (1.2–16.8 μg), and/or pTT5 (0.8–17.6 μg), as indicated, using the 293fectin protocol (Thermo Fisher Scientific) with 20 μg total DNA. Cells were transfected with either GFP-ABD-L253P or –WT, but coexpression of the WT and mutant isoform was not explored in this study. The cells were harvested 24 h later by centrifugation at 100g for 5 min and then washed twice with PBS. […]

[3] = tested on: HEK293-6E cells; assay: Trypan blue cell viability assay; format: cell-based
Method: HEK293-6E cell viability was measured using trypan blue (0.03%) staining and a Countess Automated Cell counter (Invitrogen). Nontransfected HEK293-6E cells were spun at 100g for 5 min at 21 °C and resuspended in 10 ml of PBS. The centrifugation and resuspension were repeated twice more. Final cell concentration was 1 × 10^6 cells/ml. Cells were incubated with 2% DMSO or 3 to 50 μM compound (as indicated) for 3 h at room temperature (21 °C). After addition of 100 μl of 0.06% trypan blue solution in PBS, 10 μl was loaded on a slide and injected into the cell counter, and cell viability was measured.

[4] = biological target: T3, Lifeact-mCherry binding to actin (Oryctolagus cuniculus, UniProt P68135); assay: F-actin and Lifeact-mCherry cosedimentation assay; conditions: for Effect on actin-Lifeact cosedimentation: 10 μM Hit compound
T3 construct: from tissue; host or cells: actin: rabbit psoas muscle; Lifeact-mCherry: made in house in E. coli (pE-SUMOpro)
Method: as §1, §2

[5] = biological target: T4, ABD L253P (Homo sapiens, UniProt O15020, L253P); assay: Sedimentation of ABD L253P without actin (aggregation); conditions: 10 μM Hit compound, n = 4
T4 construct: the β-III-spectrin (human) ABD residues 1 to 284; His-SUMO (cleaved yes); made in house; host or cells: E. coli BL21(DE3), vector pE-SUMOpro
Method: In addition to a reduction in cell viability, the primary and counter screen may be sensitive to compounds that promote ABD-L253P protein aggregation. […] Our assay measuring ABD-L253P cosedimentation with actin is not sensitive to ABD aggregation, as it is designed to work under conditions where ∼90% ABD-L253P cosediments with actin. Nevertheless, we repeated these measurements in the absence of actin.
as §2

[6] = tested on: mammalian cells; conditions: cited from earlier work
[7] = biological target: actin filaments; conditions: read-out: Affinity for actin; cited from earlier work
[8] = 10 μM Hit compound, 3 h incubation

T4 sequence (O15020 1-284 L253P): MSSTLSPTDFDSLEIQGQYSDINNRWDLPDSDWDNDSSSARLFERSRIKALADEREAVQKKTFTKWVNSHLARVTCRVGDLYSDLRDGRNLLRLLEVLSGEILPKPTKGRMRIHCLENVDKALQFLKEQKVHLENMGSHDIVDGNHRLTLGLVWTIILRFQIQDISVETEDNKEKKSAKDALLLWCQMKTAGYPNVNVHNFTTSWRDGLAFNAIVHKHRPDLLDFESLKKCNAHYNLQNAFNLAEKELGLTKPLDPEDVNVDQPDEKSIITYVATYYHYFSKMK
T2 sequence (O15020 1-284 L253P): as above
T1 sequence (O15020 1-284 L253P): as above

Row | Effect of Hit compound on primary FRET [2] | Effect on ABD pelleting without actin (aggregation) [5] | Effect on actin-Lifeact cosedimentation [4] | Compound | Effect on HEK293-6E cell viability [3, 8] | other results
1 |  |  |  | [H]/N=C(/NCCCCC)N/N=C/c1c[nH]c2ccc(OC)cc12 [tegaserod] |  | Effect on ABD-L253P cosedimentation with actin [1]: no significant effect; Reduction of Total FRET in primary FRET assay ([2]; 50 μM tegaserod, relative to DMSO): > 50% and 83%; Effect on HEK293-6E cell viability ([3]; 3 μM swinholide A, 50 μM tegaserod, 3 h): greatly diminished; Decrease in cell viability ([3]; 50 μM tegaserod, 3 h): 92%; Effect on Lifeact-mCherry cosedimentation with actin ([4]; 3 μM swinholide A, 50 μM tegaserod): did not alter
2 | decrease FRET | promote aggregation | decreased | CC(C)(Sc1ccc(CCN(CCCCC2CCCCC2)C(=O)NC2CCCCC2)cc1)C(=O)O [GW7647] | dramatically reduced | 
3 |  |  |  | GFP-ABD-L253P: green fluorescent protein fused to N terminus of the mutant β-III-spectrin ABD (L253P); FRET donor |  | Kd [7]: 75 nM
4 | decrease FRET |  | decreased | CCCCCCCCCCCCCCCC(=O)OC(CC(=O)[O-])C[N+](C)(C)C (racemic) [palmitoyl-DL-carnitine] | dramatically reduced | Effect on cell viability in mammalian cells [6]: reduce cell viability
5 | decrease FRET |  | decreased | Clc1ccc(C(c2ccc(Cl)cc2)n2cc[n+](CC(OCc3ccc(Cl)cc3Cl)c3ccc(Cl)cc3Cl)c2)cc1 (centres unmarked) [calmidazolium] | dramatically reduced | Effect on cell viability in mammalian cells [6]: reduce cell viability
6 | decrease FRET | trend toward increasing |  | CCCc1c(-c2ccc(O)cc2)nn(-c2ccc(O)cc2)c1-c1ccc(O)cc1 [PPT] |  | 

Row | Compound | Effect of Hit compound on primary FRET [2] | Effect on ABD pelleting without actin (aggregation) [5] | Effect on actin-Lifeact cosedimentation [4] | Effect on HEK293-6E cell viability [3, 8] | other results
7 | Cc1cc2c(C(C)C)c(O)c(O)c(C=O)c2c(O)c1-c1c(C)cc2c(C(C)C)c(O)c(O)c(C=O)c2c1O [gossypol] | decrease FRET | promote aggregation |  |  | Reduction of cell viability ([6]; 10 μM ref 36, 37, 38): < 10%
